According to patent US20130096123A1, “RADIATION SENSITISER COMPOSITIONS” (EUPHARMA PTY LTD, priority 2010, published 2013):
In brackets after ≈: the same amount, converted by molar mass.

Tests used:
physchem = assay type: physicochemical
Method: A large number of these exist but in this formulation Hydroxypropyl beta Cyclodextrin (HPbCD) is used. HPbCD also assists masking the taste of the drug.
A solubility increase of above 10 fold is achieved and the room temperature solubility of nimorazole may be increased to the more dose convenient level of 100 mg/ml.
HPbCD complexes with nimorazole over a wide molar ratio, in this example the lower ratio of […] is used, therefore 226 g of nimorazole is used with 1400 g of HPbCD.

[1] = cited from earlier work

- solubility increase (physchem): above 10 fold
- solubility (physchem; aqueous with cosolvent or surfactant or cyclodextrin): 100 mg/mL (≈ 442 mM)
Compound: O=[N+]([O-])c1cncn1CCN1CCOCC1 [Nimorazole, nimorazole]
- pKa [1]: 5.2
